The values below are quoted from earlier work in patent US20070111204A1, “Methods for detecting nucleic acid variations” (priority 2003, published 2007).

For this data set, the system named is CGRP. Conditions: marmoset, electrical stimulation of the trigeminal ganglion (Doods et al. 2000).

Turning to `NCCCC[C@H](NC(=O)[C@@H](Cc1cc(Br)c(O)c(Br)c1)NC(=O)N1CCC(N2Cc3ccccc3NC2=O)CC1)C(=O)N1CCN(c2ccncc2)CC1` [BIBN4096BS], the “effect on increase of facial blood flow” value was “blocked”.
